Data taken from the supplement of paper PMC8967900.

System: CCRF-CEM
Experiment: selective drug sensitivity score (sDSS, relative to normal bone marrow) (sDSS (score)); higher = more potent and effective on the cell line relative to normal bone marrow cells
Details: 72 h
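Note: ALL cell lines in 384-well plates, five doses spanning 10,000-fold, each plate scaled between vehicle and 100 µmol/L benzalkonium chloride controls, sDSS an adapted area-under-curve metric.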

Row | Compound | selective drug sensitivity score
1 | Nc1nc2[nH]cnc2c(=S)[nH]1 [Thioguanine] (top concentration 10000 nM) | 15.3
2 | CC#CC(=O)N1CC[C@@H](n2c(=O)n(-c3ccc(Oc4ccccc4)cc3)c3c(N)ncnc32)C1 [Tirabrutinib] (top concentration 1000 nM) | 0
3 | CC(C)C[C@@H](C(=O)N[C@H](C(=O)OC1CCCC1)c1ccccc1)[C@H](O)C(=O)NO [Tosedostat] (top concentration 10000 nM) | 4.36
4 | CS(=O)(=O)c1ccc(-c2cnc(N)c(C(=O)Nc3ccccc3)n2)cc1 [VE-821] (top concentration 10000 nM) | -0.66
5 | CNC(=O)c1ccccc1Nc1cc(Nc2ccc(N3CCOCC3)cc2OC)ncc1C(F)(F)F [VS-4718] (top concentration 10000 nM) | 2
6 | Cc1cccc(-c2[nH]c(CNc3ccccc3F)nc2-c2ccc3ncnn3c2)n1 [Vactosertib (TEW-7197)] (top concentration 2500 nM) | -0.5
7 | O=C(/C=C\n1cnc(-c2cc(C(F)(F)F)cc(C(F)(F)F)c2)n1)NNc1ccccn1 [Verdinexor] (top concentration 1000 nM) | 5.24
8 | CC[C@@H]1C(=O)N(C)c2cnc(Nc3ccc(C(=O)N[C@H]4CC[C@H](N5CCN(CC6CC6)CC5)CC4)cc3OC)nc2N1C(C)C [Volasertib] (top concentration 1000 nM) | 13.8
9 | O=C(CCCCCCC(=O)Nc1ccccc1)NO [Vorinostat] (top concentration 10000 nM) | 5.9

System: LC4-1
Experiment: as above
Details: 72 h

Row | Compound | selective drug sensitivity score
10 | CN(C)Cc1ccc(S(=O)(=O)n2ccc(/C=C/C(=O)NO)c2)cc1 [Resminostat] (top concentration 10000 nM) | 4.54
11 | COc1cc(OC)c(/C=C/S(=O)(=O)Cc2ccc(OC)c(NCC(=O)O)c2)c(OC)c1 [Rigosertib] (top concentration 10000 nM) | 16.6
12 | COc1ccc(CCc2nc3cc(-c4c(C)noc4C)ccc3n2C[C@H](C)N2CCOCC2)cc1Cl [SGC-CBP30] (top concentration 25000 nM) | 7.48
13 | CCS(=O)(=O)c1cccc(-c2cc(C(=O)NC3CCN(C)CC3)c(C)c3[nH]c4ncc(C)cc4c23)c1 [TAK-901] (top concentration 1000 nM) | 10.8
14 | Nc1nc(NC2CC2)cc(-c2cccc(Cl)c2Cl)n1 [TH588] (top concentration 25000 nM) | 8.72
15 | CC(=O)Nc1ccc(C(=O)Nc2ccccc2N)cc1 [Tacedinaline] (top concentration 1000 nM) | 1.18
16 | Cn1ncnc1[C@H]1c2n[nH]c(=O)c3cc(F)cc(c23)N[C@@H]1c1ccc(F)cc1 [Talazoparib] (top concentration 1000 nM) | 3.18
17 | COc1cccc2c1c(O)c(C(=O)N(C)c1ccc(C(F)(F)F)cc1)c(=O)n2C [Tasquinimod] (top concentration 10000 nM) | -0.42
18 | Nc1nc2[nH]cnc2c(=S)[nH]1 [Thioguanine] (top concentration 10000 nM) | 12.4
19 | CC#CC(=O)N1CC[C@@H](n2c(=O)n(-c3ccc(Oc4ccccc4)cc3)c3c(N)ncnc32)C1 [Tirabrutinib] (top concentration 1000 nM) | 0.7
20 | CC(C)C[C@@H](C(=O)N[C@H](C(=O)OC1CCCC1)c1ccccc1)[C@H](O)C(=O)NO [Tosedostat] (top concentration 10000 nM) | 2.26
21 | CS(=O)(=O)c1ccc(-c2cnc(N)c(C(=O)Nc3ccccc3)n2)cc1 [VE-821] (top concentration 10000 nM) | 4.64
22 | CNC(=O)c1ccccc1Nc1cc(Nc2ccc(N3CCOCC3)cc2OC)ncc1C(F)(F)F [VS-4718] (top concentration 10000 nM) | -3
23 | Cc1cccc(-c2[nH]c(CNc3ccccc3F)nc2-c2ccc3ncnn3c2)n1 [Vactosertib (TEW-7197)] (top concentration 2500 nM) | -0.1
24 | O=C(/C=C\n1cnc(-c2cc(C(F)(F)F)cc(C(F)(F)F)c2)n1)NNc1ccccn1 [Verdinexor] (top concentration 1000 nM) | 1.94
25 | CC[C@@H]1C(=O)N(C)c2cnc(Nc3ccc(C(=O)N[C@H]4CC[C@H](N5CCN(CC6CC6)CC5)CC4)cc3OC)nc2N1C(C)C [Volasertib] (top concentration 1000 nM) | 13.4
26 | O=C(CCCCCCC(=O)Nc1ccccc1)NO [Vorinostat] (top concentration 10000 nM) | 8.2

System: NALM-6
Experiment: as above
Details: 72 h

Row | Compound | selective drug sensitivity score
27 | CN(C)Cc1ccc(S(=O)(=O)n2ccc(/C=C/C(=O)NO)c2)cc1 [Resminostat] (top concentration 10000 nM) | 1.34
28 | COc1cc(OC)c(/C=C/S(=O)(=O)Cc2ccc(OC)c(NCC(=O)O)c2)c(OC)c1 [Rigosertib] (top concentration 10000 nM) | 16.1
29 | COc1ccc(CCc2nc3cc(-c4c(C)noc4C)ccc3n2C[C@H](C)N2CCOCC2)cc1Cl [SGC-CBP30] (top concentration 25000 nM) | 0.08
30 | CCS(=O)(=O)c1cccc(-c2cc(C(=O)NC3CCN(C)CC3)c(C)c3[nH]c4ncc(C)cc4c23)c1 [TAK-901] (top concentration 1000 nM) | 9.66
31 | Nc1nc(NC2CC2)cc(-c2cccc(Cl)c2Cl)n1 [TH588] (top concentration 25000 nM) | -0.58
32 | CC(=O)Nc1ccc(C(=O)Nc2ccccc2N)cc1 [Tacedinaline] (top concentration 1000 nM) | -0.02
33 | Cn1ncnc1[C@H]1c2n[nH]c(=O)c3cc(F)cc(c23)N[C@@H]1c1ccc(F)cc1 [Talazoparib] (top concentration 1000 nM) | 3.78
34 | COc1cccc2c1c(O)c(C(=O)N(C)c1ccc(C(F)(F)F)cc1)c(=O)n2C [Tasquinimod] (top concentration 10000 nM) | -0.42
35 | Nc1nc2[nH]cnc2c(=S)[nH]1 [Thioguanine] (top concentration 10000 nM) | 10.2
36 | CC#CC(=O)N1CC[C@@H](n2c(=O)n(-c3ccc(Oc4ccccc4)cc3)c3c(N)ncnc32)C1 [Tirabrutinib] (top concentration 1000 nM) | 0
37 | CC(C)C[C@@H](C(=O)N[C@H](C(=O)OC1CCCC1)c1ccccc1)[C@H](O)C(=O)NO [Tosedostat] (top concentration 10000 nM) | -1.04
38 | CS(=O)(=O)c1ccc(-c2cnc(N)c(C(=O)Nc3ccccc3)n2)cc1 [VE-821] (top concentration 10000 nM) | -0.66
39 | CNC(=O)c1ccccc1Nc1cc(Nc2ccc(N3CCOCC3)cc2OC)ncc1C(F)(F)F [VS-4718] (top concentration 10000 nM) | 0.4
40 | Cc1cccc(-c2[nH]c(CNc3ccccc3F)nc2-c2ccc3ncnn3c2)n1 [Vactosertib (TEW-7197)] (top concentration 2500 nM) | -0.5
41 | O=C(/C=C\n1cnc(-c2cc(C(F)(F)F)cc(C(F)(F)F)c2)n1)NNc1ccccn1 [Verdinexor] (top concentration 1000 nM) | 11.7
42 | CC[C@@H]1C(=O)N(C)c2cnc(Nc3ccc(C(=O)N[C@H]4CC[C@H](N5CCN(CC6CC6)CC5)CC4)cc3OC)nc2N1C(C)C [Volasertib] (top concentration 1000 nM) | 11.9
43 | O=C(CCCCCCC(=O)Nc1ccccc1)NO [Vorinostat] (top concentration 10000 nM) | 2.3
